Source: patent publication US20230364079A1, “COMPOUND AS BRAIN-PERMEABLE BTK OR HER2 INHIBITOR, PREPARATION METHOD THEREFOR, AND USE THEREOF” (CHENGDU HYPERWAY PHARMACEUTICALS CO., LTD., priority 2020, published 2023)
Counter-ions that a name gives are not always drawn.

Experiments:
[1] = Liver microsome metabolic stability test, rat; type: in vitro ADME; conditions: for half-life: read-out: T½
Protocol: (§1) 1: To the sample wells of T0, T5, T10, T20, T30, T60 and NCF60, 10 µL of the test or reference working solution and 80 µL of microsome working solution (hepatic microsome with a protein concentration of 0.5 mg/mL) were added, and to Blank60 well, only the microsome working solution was added. Then samples of the Blank60, T5, T10, T20, T30 and T60 other than T0 and NCF60 were placed in a 37° C. water bath and pre-incubated for about 10 min.
(§2) 2: To the T0 sample well, 300 µL of stop solution (containing 200 ng/mL tolbutamide and 200 ng/mL labetalol in acetonitrile solution) was added first, followed by 10 µL of NADPH regeneration system working solution.
(§3) 3: After the pre-incubation of Blank60, T5, T10, T20, T30 and T60 incubation plates, 10 µL of NADPH regeneration system working solution was added to each sample well to start the reaction, and 10 µL of 100 mM potassium phosphate buffer was added to the NCF60 sample well.
(§4) 4: After incubation for an appropriate time (such as 5, 10, 20, 30 and 60 min), to each test sample well and control well of the Blank60, T5, T10, T20, T30, T60 and NCF60 plates, 300 µL of stop solution was added to terminate the reaction.
(§5) 5: All sample plates were shaken to mix well and centrifuged at 4000 rpm for 20 min, and 100 µL of the supernatant of the test sample or control sample was taken and diluted with 300 µL of pure water for LC-MS/MS analysis.
(§6) 6: Data analysis: T½ and CLint(mic) (µL/min/mg) values were calculated according to the first-order elimination kinetics. The first-order elimination kinetics equation was: […]

[2] = target: BTK mutation-type C481S kinase (Homo sapiens (Human), UniProt Q06187, C481S); test: BTK-C481S kinase activity inhibition test in vitro (Caliper EZ Reader); type: biochemical
Sequence of BTK mutation-type C481S kinase (Q06187 whole entry C481S): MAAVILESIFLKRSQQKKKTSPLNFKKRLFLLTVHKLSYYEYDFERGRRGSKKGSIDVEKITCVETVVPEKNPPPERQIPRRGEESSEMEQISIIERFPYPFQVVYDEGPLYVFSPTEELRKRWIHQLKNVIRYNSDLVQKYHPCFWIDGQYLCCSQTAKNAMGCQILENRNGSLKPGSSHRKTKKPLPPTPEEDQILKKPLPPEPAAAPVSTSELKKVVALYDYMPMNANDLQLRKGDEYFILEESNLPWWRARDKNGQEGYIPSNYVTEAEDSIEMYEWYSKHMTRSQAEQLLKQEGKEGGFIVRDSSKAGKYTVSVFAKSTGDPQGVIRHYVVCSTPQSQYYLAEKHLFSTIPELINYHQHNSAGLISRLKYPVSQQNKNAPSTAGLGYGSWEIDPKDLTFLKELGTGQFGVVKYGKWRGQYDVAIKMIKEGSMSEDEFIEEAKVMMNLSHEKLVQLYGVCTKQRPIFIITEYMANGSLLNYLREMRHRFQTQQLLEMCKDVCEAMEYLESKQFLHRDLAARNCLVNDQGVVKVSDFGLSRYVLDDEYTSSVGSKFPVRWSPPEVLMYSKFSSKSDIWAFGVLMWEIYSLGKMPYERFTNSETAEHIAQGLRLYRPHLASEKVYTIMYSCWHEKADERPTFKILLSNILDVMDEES
Protocol: In the tests on the activity of inhibiting BTK and HER2 kinase in vitro in the examples of the present disclosure, powder of the compound was dissolved in 100% DMSO to prepare a 10 mM stock solution and stored at-20° C. in the dark. […] In addition, the compounds were subjected to experiments such as liver microsome metabolic stability, rat PK, rat brain penetration rate, and drug efficacy model in the examples of the present disclosure.
Compound powders were dissolved in 100% DMSO to make 10 mM stock solutions, which were stored at -20° C. in the dark.
2: Kinase Reaction Process
(1) Preparation of 1 × Kinase buffer.
(5) After centrifugation at 1000 rpm for 30 seconds, the reaction plate was shaken to mix well and incubated at room temperature for 10 min.
(6) A 5/3-fold final concentration of a mixed solution of ATP and Kinase substrate 2 was prepared with 1 × Kinase buffer.
(7) 15 µL of the mixed solution of ATP and substrate with 5/3-fold final concentration was added to start the reaction.
(8) The 384-well plate was centrifuged at 1000 rpm for 30 seconds, shaken to mix well, and incubated at room temperature for 10 min.
(9) 30 µL of a stop solution was added to stop the kinase reaction, and after centrifugation at 1000 rpm for 30 seconds, the plate was shaken to mix well;
(10) The conversion rate was read with Caliper EZ Reader.
where Conversion%_sample indicates the conversion rate reading of the sample; Conversion%_min is the average reading of the negative control wells, representing the conversion rate reading of the wells without enzyme activity; Conversion%_max is the average reading of the ratio of the positive control wells, representing the conversion rate reading of the wells without compound inhibition.
Dose-Response Curve Fitting
With the log value of the concentration as the X-axis, and the percentage inhibition rate as the Y-axis, the dose-effect curve was fitted using the log(inhibitor) vs. response-Variable slope of the analysis software GraphPad Prism 5, so as to determine the IC50 value of each compound on the enzyme activity.
The calculation formula was: […]

[3] = Liver microsome metabolic stability test, human; type: in vitro ADME; conditions: for half-life: read-out: T½
Protocol: as §1, §2, §3, §4, §5, §6

[4] = Pharmacokinetic test, oral, SD rats; type: in vivo; conditions: oral 10 mg/kg, plasma; for AUC(0-inf) / Cmax / half-life: rat; for Cmax: read-out: Cmax; for half-life: read-out: T½ (converted)
Protocol: Each test compound was administered orally (10 mg/kg, 3 rats in each group) to SD rats for pharmacokinetic study. […] Animals were fasted overnight before oral administration, and fed again after 4 h of administration. […] At each collection time point, 3 whole blood samples were collected at a the collection volume of about 0.2-0.3 mL. […] The collected plasma was stored at -20° C. before analysis. 20 µL of plasma sample was added into a 1.6 mL 96-well deep-well plate, added with 200 µL of working internal standard solution (the same volume of vehicle was added to the blank instead of internal standard), vortexed for 1 min, and centrifuged at 5800 rpm for 10 min. 100 µL of the supernatant was added to a 96-well injection plate for LC-MS/MS analysis.

BTK wild-type kinase = BTK wild-type kinase (Homo sapiens (Human), UniProt Q06187); test: BTK kinase activity inhibition test in vitro (Caliper EZ Reader); type: biochemical
Sequence of BTK wild-type kinase (Q06187 whole entry): as the sequence (Q06187 whole entry C481S) above, with S481C counted along it
In short: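 Compound (10 mM DMSO stock) preincubated with kinase 10 min at room temperature, then ATP plus kinase substrate 2 added, 10 min reaction at room temperature before stop. Substrate conversion read by Caliper mobility shift; inhibition normalised to no-enzyme and no-compound controls, IC50 by variable-slope log(inhibitor) fit.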

[5] = test system: relapsed/refractory central nervous system lymphoma; conditions: relapsed or refractory PCNSL patients; cited from earlier work
[6] = Blood-brain barrier permeability test, SD rats (plasma, cerebrospinal fluid, brain tissue); type: in vivo; conditions: oral single dose 10 mg/kg
Protocol: Test Example 6: Blood-brain Barrier Permeability Test
Each test compound was administered orally at a single dose of 10 mg/kg to SD rats for pharmacokinetic study. Each group included 9 rats. The test compound was dissolved in 5% DMSO+10% solutol+85% saline, vortexed for 1-2 min, and ultrasonicated for 5-10 min to prepare into a colorless, transparent and clear administration solution. Animals were fasted overnight before administration. 1 h, 2 h, and 4 h after administration, three SD rats were selected from each group to take about 0.2-0.3 mL of blood through their orbit. The blood sample was placed on ice once collected, and centrifuged to separate the plasma within 15 min (centrifugation conditions: 8000 rpm, 1 min, room temperature). The collected plasma was stored at -20° C. before analysis. Immediately after blood collection, the cerebrospinal fluid and brain tissue were collected. The cerebrospinal fluid was draw out by dural puncture with a micro-sampler syringe under direct vision. Namely, about 100 µl of cerebrospinal fluid was collected with a 100 µl micro sample syringe from the rat that was anesthetized by chloral hydrate, with the head-fixed, the back hair-cut off, a transverse incision (2 cm) made at the line connecting the roots of the two ears, and the muscle layer of the neck and skull base bluntly scraped to expose the foramen magnum. The cerebrospinal fluid was stored at -20° C. before analysis. The rat then was sacrificed immediately, with its head cut off. The dissected brain tissue, with the surface capillaries peeled off, was weighed, added with 3 times the amount of cold saline, homogenized by a homogenizer for 1 min, and stored at -20° C. before analysis. 20 µL of plasma sample and brain homogenate sample was respectively added into 200 µL of working internal standard solution (the same volume of vehicle was added to the blank instead of internal standard), vortexed for 1 min, and centrifuged at 13500 rpm for 10 min. 100 µL of the supernatant was taken and analyzed by LC-MS/MS. 20 µL of the cerebrospinal fluid was added into 60 µL of working internal standard solution (the same volume of vehicle, instead of internal standard, was added to the blank), vortexed for 1 min, and centrifuged at 13500 rpm for 10 min. 50 µL of the supernatant was taken and analyzed by LC-MS/MS.

[7] = liver microsomes, 0.5 mg/mL protein

Row | Structure (SMILES) | %Remaining (60 min) [1] [%] | half-life [1, 7] [h] | IC50 [2] [nM] | %Remaining (60 min) [3] [%] | half-life [3, 7] [h] | Cl [4] [mL/min/kg] | AUC(0-inf) [4] [ng·h/mL] | Cmax [4] [ng/mL] | half-life [4] [h] | IC50 (BTK wild-type kinase) [nM] | other results
1 | Nc1nccn2c(C34CCC(CO)(CC3)OC4)nc(-c3ccc(C(=O)Nc4ccccn4)cc3)c12 [Compound 34] | 90.3 | > 2.42 | 5 to 20 | 112.0 | > 2.42 | 8.1 | 20600 | 11100 | 1.7 | 5 to 20 | –
2 | CC#CC(=O)N1CC[C@@H](n2c(=O)n(-c3ccc(Oc4ccccc4)cc3)c3c(N)ncnc32)C1 [Velexbru, Tirabrutinib hydrochloride] | – | – | – | – | – | – | – | – | – | – | patients who achieved effective remission [5]: 52.9%
3 | Nc1nccn2c(C3CCC(CO)OC3)nc(-c3ccc(C(=O)c4ccccc4)cc3)c12 (stereo not shown) [Compound 26] | 24.5 | 0.502 | 5 to 20 | 39.1 | 0.742 | – | – | – | – | 5 to 20 | –
4 | Nc1nccn2c(C3CCC(CO)OC3)nc(-c3ccc(Oc4cccc(F)c4F)cc3)c12 (stereo not shown) [Compound 8] | 13.6 | 0.347 | < 5 | 37.4 | 0.682 | – | – | – | – | < 5 | –
5 | Nc1nccn2c(C34CCC(CO)(CC3)OC4)nc(-c3ccc(C(F)(F)c4cccc(F)c4Cl)cc3)c12 [Compound 146] | – | – | – | – | – | – | – | – | – | – | Brain tissue/plasma ([6]; 1 h): 78%; Cerebrospinal fluid/plasma ([6]; 1 h): 7.2%; Drug concentration in brain tissue ([6]; 1 h): 296 ng/g; Drug concentration in cerebrospinal fluid ([6]; 1 h): 27.4 ng/mL; Plasma drug concentration ([6]; 1 h): 380 ng/mL; Brain tissue/plasma ([6]; 4 h): 110%; Cerebrospinal fluid/plasma ([6]; 4 h): 9.2%; Drug concentration in brain tissue ([6]; 4 h): 410 ng/g; Drug concentration in cerebrospinal fluid ([6]; 4 h): 34.3 ng/mL; Plasma drug concentration ([6]; 4 h): 373 ng/mL
6 | Nc1nccn2c(C3CCC(CO)OC3)nc(-c3ccc(Cc4ccccc4)cc3)c12 (stereo not shown) [Compound 106] | 39.1 | 0.782 | < 5 | 66.3 | 1.76 | 64.75 | 2580 | 1220 | 1.87 | < 5 | –
7 | COc1cccc(Oc2ccc(-c3nc(C4CCC(CO)OC4)n4ccnc(N)c34)cc2)c1F (stereo not shown) [Compound 5] | 12.7 | 0.19 | < 5 | 31.7 | 0.595 | 69.13 | 2520 | 463 | 1.17 | < 5 | –
8 | Nc1nccc2c1n(-c1ccc(Oc3ccccc3)cc1)c(=O)n2C1CCC(CO)OC1 (stereo not shown) [Compound 120] | – | – | 5 to 20 | – | – | – | – | – | – | 20 to 100 | –

Now from value to compound, other results behind:

Row | %Remaining (60 min) [1] [%] | half-life [1, 7] [h] | IC50 [2] [nM] | %Remaining (60 min) [3] [%] | half-life [3, 7] [h] | Cl [4] [mL/min/kg] | AUC(0-inf) [4] [ng·h/mL] | Cmax [4] [ng/mL] | half-life [4] [h] | IC50 (BTK wild-type kinase) [nM] | Structure (SMILES) | other results
9 | 72.7 | 1.9 | < 5 | 85.4 | > 2.42 | 1.62 | 104000 | 16700 | 2.83 | < 5 | Nc1nccn2c(C3CCC(CO)OC3)nc(-c3ccc(C(=O)Nc4cc(C(F)(F)F)ccn4)cc3)c12 (single isomer, unassigned) [Compound 109-P1] | microsomal CLint ([1]; liver microsomes): 12.2 µL/min/mg; microsomal CLint ([3]; liver microsomes): < 9.6 µL/min/mg
10 | 85.7 | > 2.42 | < 5 | 100.3 | > 2.42 | 16.67 | 10400 | 4730 | 1.73 | < 5 | N#Cc1ccnc(NC(=O)c2ccc(-c3nc(C4CCC(CO)OC4)n4ccnc(N)c34)cc2)c1 (stereo not shown) [Compound 103] | –
11 | 63.7 | – | 5 to 20 | 99.9 | – | – | – | – | – | 20 to 100 | Nc1nccn2c(C3CC[C@@H](CO)OC3)nc(-c3ccc(C(=O)Nc4ccccn4)cc3F)c12 (stereo partly shown) [Compound 1-B] | CLint [1]: 18.2 µL/min/mg; T½ ([1]; 0.5 mg/mL protein): 1.27 h; CLint [3]: <9.6 µL/min/mg; T½ ([3]; 0.5 mg/mL protein): >2.42 h
12 | – | – | 100 to 1000 | – | – | – | – | – | – | 100 to 1000 | Nc1nccn2c(C3CCC(CO)OC3)nc(-c3ccc(C(F)(F)c4cc(C(F)(F)F)ccn4)cc3)c12 (stereo not shown) [Compound 124] | –
13 | 46 | 0.887 | < 5 | 73.5 | 2.12 | 17.83 | 9630 | 1780 | 3.15 | < 5 | Nc1nccn2c(C3CCC(CO)OC3)nc(-c3ccc(C(F)(F)c4ccccc4)cc3)c12 (stereo not shown) [Compound 111] | –
